Key:
Type in all cases: in vivo
[1] = test system: wild poinsettia (Euphorbia heterophylla); experiment: Test E greenhouse herbicide test, pre- and postemergence
Summary of the method: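 Scores (0–100, visual, vs controls) reflect greenhouse growth of 14 to 21 d after treatment. Application was pre-emergence to silt loam or post-emergence at the 1- to 4-leaf stage.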

[2] = test system: waterhemp_RES2 (ALS & HPPD resistant common waterhemp, Amaranthus rudis); experiment: Test E greenhouse herbicide test, postemergence
Procedure: (§1) At the same time, plants from these crop and weed species and also waterhemp_RES1, (ALS & Triazine resistant common waterhemp, Amaranthus rudis), and waterhemp_RES2, (ALS & HPPD resistant common waterhemp, Amaranthus rudis) were planted in pots containing Redi-Earth® planting medium (Scotts Company, 14111 Scottslawn Road, Marysville, Ohio 43041) comprising spaghnum peat moss, vermiculite, wetting agent and starter nutrients were treated with postemergence applications of test chemicals formulated in the same manner. Plants ranged in height from 2 to 18 cm for postemergence treatments (1- to 4-leaf stage). Treated plants and controls were maintained in a greenhouse for 14 to 21 d, after which time all species were compared to controls and visually evaluated. Plant response ratings, summarized in Table E, are based on a scale of 0 to 100 where 0 is no effect and 100 is complete control. A dash (-) response means no test result.

[3] = test system: waterhemp_RES1 (ALS & Triazine resistant common waterhemp, Amaranthus rudis); experiment: Test E greenhouse herbicide test, postemergence
Procedure: as §1

[4] = 62 g ai/ha, Postemergence, scale 0 to 100 (0 no effect, 100 complete control)
[5] = 125 g ai/ha, Postemergence, scale 0 to 100 (0 no effect, 100 complete control)
[6] = 250 g ai/ha, Postemergence, scale 0 to 100 (0 no effect, 100 complete control)
[7] = Postemergence, 31 g ai/ha, visual, scale 0 no effect to 100 complete control
[8] = 31 g ai/ha, visual, scale 0 no effect to 100 complete control
[9] = 62 g ai/ha, scale 0 to 100 (0 no effect, 100 complete control)
[10] = 125 g ai/ha, scale 0 to 100 (0 no effect, 100 complete control)
[11] = 250 g ai/ha, scale 0 to 100 (0 no effect, 100 complete control)
[12] = 62 g ai/ha, Preemergence, scale 0 to 100 (0 no effect, 100 complete control)
[13] = 125 g ai/ha, Preemergence, scale 0 to 100 (0 no effect, 100 complete control)
[14] = Preemergence, 31 g ai/ha, scale 0 to 100, 0 no effect, 100 complete control
[15] = Preemergence, 250 g ai/ha, visual, scale 0 no effect to 100 complete control
[16] = 16 g ai/ha, visual, scale 0 no effect to 100 complete control
[17] = Preemergence, 16 g ai/ha, scale 0 to 100, 0 no effect, 100 complete control
[18] = Postemergence, 16 g ai/ha, visual, scale 0 no effect to 100 complete control

SMILES	Plant response rating, Poinsettia, Wild [1, 4]	Plant response rating, Poinsettia, Wild [1, 5]	Plant response rating, Poinsettia, Wild [1, 6]	Plant response rating, Poinsettia, Wild [1, 7]	Plant response rating, Waterhemp_RES2 [2, 8]	Plant response rating, Waterhemp_RES2 [2, 9]	Plant response rating, Waterhemp_RES2 [2, 10]	Plant response rating, Waterhemp_RES2 [2, 11]	Plant response rating, Waterhemp_RES1 [3, 8]	Plant response rating, Waterhemp_RES1 [3, 9]	Plant response rating, Waterhemp_RES1 [3, 10]	Plant response rating, Waterhemp_RES1 [3, 11]	Plant response rating, Poinsettia, Wild [1, 12]	Plant response rating, Poinsettia, Wild [1, 13]	Plant response rating, Poinsettia, Wild [1, 14]	Plant response rating, Poinsettia, Wild [1, 15]	Plant response rating, Waterhemp_RES2 [2, 16]	Plant response rating, Waterhemp_RES1 [3, 16]	Plant response rating, Poinsettia, Wild [1, 17]	Plant response rating, Poinsettia, Wild [1, 18]
Cn1nc(Br)c(O)c(-c2cccc3ccccc23)c1=O [Compound 20]	20	30	30	0	50	50	50	60	60	70	80	80	–	–	–	–	–	–	–	–
Cc1cc2ccccc2c(-c2c(O)c(C)nn(C)c2=O)c1C [Compound 34]	–	–	–	–	40	80	–	70	90	90	90	95	–	–	–	–	–	–	–	–
Cc1nn(C)c(=O)c(-c2ccc(F)c3ccccc23)c1O [Compound 41]	–	–	–	–	20	80	80	85	75	75	90	95	40	40	15	65	–	–	–	–
CCc1sc2ccc(C)cc2c1-c1c(O)c(C)nn(C)c1=O [Compound 47]	15	25	30	10	15	50	60	70	60	70	80	95	0	0	0	20	–	–	–	–
CCc1sc2c(C)cc(C)cc2c1-c1c(O)c(C)nn(C)c1=O [Compound 57]	10	30	20	10	20	10	20	50	40	50	40	60	20	25	0	50	–	–	–	–
Cc1ccc2sc(C)c(-c3c(OC(=O)OC(C)C)c(C)nn(C)c3=O)c2c1 [Compound 66]	–	–	–	–	40	40	50	–	80	75	80	–	–	–	–	–	40	70	–	–
Cc1ccc2ccccc2c1-c1c(OC(=O)OC(C)C)c(C)nn(C)c1=O [Compound 72]	40	65	75	30	35	40	50	65	60	80	80	90	15	10	0	20	–	–	–	–
Cc1nn(C)c(=O)c(-c2ccc(Br)c3ccccc23)c1O [Compound 75]	–	–	–	–	60	60	60	75	90	90	95	90	–	–	–	–	–	–	–	–
Cc1ccc2sc(Br)c(-c3c(O)c(C)nn(C)c3=O)c2c1 [Compound 79]	10	20	10	10	20	15	15	55	50	60	70	75	60	60	50	55	–	–	–	–
COC(=O)Oc1c(C)nn(C)c(=O)c1-c1c(C)sc2ccc(C)cc12 [Compound 80]	–	–	–	–	–	–	–	–	–	–	–	–	0	40	0	–	–	–	0	–
CC(=O)Oc1c(C)nn(C)c(=O)c1-c1c(C)cc(C)c2ccccc12 [Compound 99]	40	50	–	30	50	–	60	–	50	–	75	–	–	–	–	–	50	50	–	35
CCCC(=O)Oc1c(C)nn(C)c(=O)c1-c1c(C)sc2ccc(C)cc12 [Compound 105]	25	30	–	30	50	–	70	–	80	–	100	–	10	10	10	–	40	80	0	30
Cc1nn(C)c(=O)c(-c2cccc3ccc(Br)cc23)c1O [Compound 126]	20	50	50	30	55	–	70	85	75	–	90	100	–	–	–	–	–	–	–	–
